{"source": "patent US6893654B2", "about": "“Two-stage transmucosal medicine delivery system for symptom relief” (priority 1998, dated 2005)", "conditions": "solution at pH 8.0"}
{"smiles": "CN1CCCC1c1cccnc1", "note": "(stereo not shown) [nicotine]", "values": [{"measurement": "portion of nicotine unionized and free to be absorbed", "value": "fifty"}]}
